In BindingDB's records for doi:10.1016/j.bioorg.2015.10.006 (University of Karachi, 2015) one finds IC50 data, which are given here for 6 molecules.

pIC50: −log10 of the molar value.

The target in this test is T1, Thymidine phosphorylase (Escherichia coli (strain SMS-3-5 / SECEC), UniProt B1LEI7).
T1 sequence (B1LEI7 whole entry): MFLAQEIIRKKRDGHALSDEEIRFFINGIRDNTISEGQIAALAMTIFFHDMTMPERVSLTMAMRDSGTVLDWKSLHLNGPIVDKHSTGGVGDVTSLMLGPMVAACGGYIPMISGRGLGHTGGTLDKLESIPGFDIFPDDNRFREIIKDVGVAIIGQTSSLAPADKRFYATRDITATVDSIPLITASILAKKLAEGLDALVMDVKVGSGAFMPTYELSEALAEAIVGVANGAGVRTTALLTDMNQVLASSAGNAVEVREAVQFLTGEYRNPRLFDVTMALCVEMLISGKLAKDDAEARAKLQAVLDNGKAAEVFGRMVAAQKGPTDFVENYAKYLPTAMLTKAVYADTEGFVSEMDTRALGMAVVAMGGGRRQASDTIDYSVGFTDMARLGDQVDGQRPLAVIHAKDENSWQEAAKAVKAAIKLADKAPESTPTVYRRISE
The test can be described thus: Thymidine Phosphorylase Inhibition Assay. Particulars: pH 7. As to the method:
TP inhibition assay was performed spectrophotometrically. The method of Bera et al. was followed with slight modifications. Reaction mixture of 200 µL, contained 20 µL of enzyme (0.058 unit/well), 150 µL of potassium phosphate buffer (pH 7.0, 50 mM), and 10 µL of test compound (0.5 mM). The reaction mixture was then incubated for 10 min at 30 °C. […] Every experiment was run in triplicate. 7-Deazaxanthine was used as positive control.
As to `O=c1[nH]c(-c2ccc(O)cc2)nc2ccccc12`, the pIC50 is 3.63.

The molecule `O=c1[nH]c(-c2cccc(O)c2)nc2ccccc12` had a pIC50 of 3.53. Next, `COc1ccc(-c2nc3ccccc3c(=O)[nH]2)cc1O`: 3.77; `CCOc1cc(-c2nc3ccccc3c(=O)[nH]2)ccc1O`: 3.59. `O=c1[nH]c(-c2ccc(O)c(O)c2)nc2ccccc12` gave a pIC50 of 4.37. Next, `O=c1[nH]c(-c2cc(O)ccc2O)nc2ccccc12`: 4.23.

The term pIC50 denotes −log10 of the IC50, conventionally taken in molar units. A high value points to a low IC50.
